Source: patent publication US7795305B2, “CDDO-compounds and combination therapies thereof” (Board of Regents, The University of Texas System, priority 2000, dated 2010)

How the values were obtained:
primary AML samples = assay: Annexin V staining of primary AML samples exposed to PPARγ ligands; type: cell-based, human; details: 72 hrs; 15d-PGJ2 5 μM; BRL49653, L-805645, GW347845X 25 μM
Method: (§1) Annexin V staining. Cells were washed in phosphate-buffered saline (PBS) and resuspended in 100 μl of binding buffer containing Annexin V (Roche Diagnostic Corporation, Indianapolis, Ind.). Cells were analyzed by flow cytometry after the addition of propidium iodide (PI). Annexin V binds to those cells that express phosphatidylserine on the outer layer of the cell membrane, and PI stains the cellular DNA of those cells with a compromised cell membrane. This allows for live cells (unstained with either fluorochrome) to be discriminated from apoptotic cells (stained only with annexin V) and necrotic cells (stained with both annexin and PI).

HL-60 cells [1] = details: 15d-PGJ2 at 3 μM, BRL49653 at 5 μM (Tontonoz et al., 1998); cited from earlier work
D9 cells, vector control = assay: Annexin V / cell number in D9 vector control cells; type: cell-based; details: 3 μM (CDDO: 5 hrs)
Method: as §1
(§2) To characterize the correlation between PPARγ and caspase activation, caspase-3 levels in D9 cells transfected with wt-PPARγ were analyzed. Six different single cell-derived clones were treated with 3 μM CDDO or vehicle controls for 5 hrs. Caspase-3 cleavage was analyzed by Western blot. A decrease in pro-caspase-3 with appearance of the cleaved product was readily observed in all clones. The degree of cleavage was higher in PPARγ-transfected than in vector control cells that express endogenous PPARγ. […] These changes correlated with plasma membrane changes: vector control=47.0% annexin V-positive cells; wt-PPARγ-transfected cells=73.3±1.1% annexin V (+), n=6. […] PPARγ-transfected cells were also more sensitive to PPARγ-ligand 15d-PGJ2 (41.00% vs 16.0% annexin (+) cells at 3 μM).
To characterize the correlation between PPARγ and caspase activation, caspase-3 levels in D9 cells transfected with wt-PPARγ were analyzed. Six different single cell-derived clones were treated with 3 μM CDDO or vehicle controls for 5 hrs. Caspase-3 cleavage was analyzed by Western blot. A decrease in pro-caspase-3 with appearance of the cleaved product was readily observed in all clones. The degree of cleavage was higher in PPARγ-transfected than in vector control cells that express endogenous PPARγ. […] These changes correlated with plasma membrane changes: vector control=47.0% annexin V-positive cells; wt-PPARγ-transfected cells=73.3±1.1% annexin V (+), n=6. […]

HL-60 cells [2] = details: 15d-PGJ2 at 3 μM, BRL49653 at 5 μM (Tontonoz et al., 1998); cited from earlier work; remark: listed apart in the source
[3] = system: wt-PPARγ-transfected D9 cells; assay: Annexin V / cell number in wt-PPARγ-transfected D9 cells; type: cell-based; details: 3 μM (CDDO: 5 hrs, n=6)
Method: as §1, §2
as §2, with “(41.0%” for “(41.00%”
The sensitivity of leukemic cells that overexpress PPARγ to CDDO-induced killing was tested. Vector control (pcDNA) or wt-PPARγ-transfected D9 cells (2 different clones) were treated 0.2 μM of CDDO for 48 hrs. Cell viability was assessed by cell count after Trypan blue exclusion, and apoptosis determined by PS/annexin V/Propidium Iodide (PI) flow cytometry. Leukemic cells transfected with PPARγ expressed 2.8-3.7-fold higher amounts of protein compared with vector controls. […] Importantly, CDDO increased PPARγ expression in both, vector control and transfected cells. […]

HL-60 cells [4] = assay: Differentiation by CD11b/CD14 flow cytometry; type: cell-based, human; details: 7 days
HL-60 cells [5] = assay: Viable cell count of leukemic cells in suspension culture (Trypan blue); type: cell-based, human; details: read-out: concentration required for 50% inhibition of HL-60 cells; PPARγ ligands compared to CDDO
Method: Suspension culture of leukemic cells. Leukemic cell lines were cultured at a density of 3.0×10^5 cells/mL, and AML mononuclear cells at 5×10^5 cells/mL in the presence or absence of indicated concentrations of CDDO-Me. Appropriate amounts of DMSO (final concentration<0.05%) was included as a control. For cytotoxicity studies, 1 μM ara-C was added to the cultures.
CDDO. […] The percentage of proliferating cells were analyzed by FCM.
CDDO-Me. […] Mechanism of growth inhibition was analyzed on cell cycle and apoptosis in HL-60 cells.

HL-60 cells [6] = assay: Differentiation by CD11b/CD14 flow cytometry; type: cell-based, human; details: 7 days, concentration 1 (column head M)
Method: Immunophenotyping. The PE-conjugated anti-CD11b, FITC-conjugated anti-CD14 monoclonal antibody (mAb) (Becton Dickinson) and PE-conjugated anti-CD95 mAb (PharMingen) were used at a 1/10 dilution.
Enhancement in cellular differentiation using combinations of CDDO with ATRA were tested. […] Cell differentiation was analyzed by flow cytometry (CD14/CD11b staining). […] These experiments were repeated. […]
Finally, the inventors examined if CDDO-Me combined with ATRA would enhance differentiation. […] […] Next, combined treatment with CDDO-Me and RXR-specific ligand were tested for potentiation of anti-leukemic effects.

leukemic cell lines = assay: Proliferation of leukemic cell lines (cell count and 3H incorporation); type: cell-based; details: read-out: IC50, proliferation of leukemic cells
melanoma xenografts = details: oral 10-30 mg/kg daily for 3 wk or 10 mg/kg injected in the tumor; cited from earlier work

Q: Which annexin-V-positive cells (primary AML samples) does the source give for `CCCCC/C=C/C=C1/C(=O)C=C[C@@H]1C/C=C\CCCC(=O)O` [15d-PGJ2, 15-deoxyΔ^12,14PGJ2] here?
A: 27.7%

Q: And the “monocytic differentiation of HL-60 cells” value (HL-60 cells [1])?
A: induce monocytic differentiation

Q: And the “annexin V-positive cells” value (D9 cells, vector control)?
A: 16.0%

Q: And the “killing of HL-60 cells” value (HL-60 cells [2])?
A: no killing

Q: What about the “annexin V (+) cells” value [3] of the same molecule?
A: 41.0%

Q: And the CD11b % (HL-60 cells [4]; 10 μM (15d-PGJ2 column head prints M))?
A: 88.9%

Q: What about the CD11b % (HL-60 cells [4]; concentration 3 (column head M)) of the same molecule?
A: 49.4%

Q: And the CD11b % (HL-60 cells [4]; concentration 5 (column head M))?
A: 83.9%

Q: And the IC50 (HL-60 cells [5])?
A: 5 µM

Q: And the CD11b % (HL-60 cells [6])?
A: 34.1%

Q: And the IC50 (leukemic cell lines)?
A: 5 to 10 µM

Q: Which “growth of melanoma xenografts in vivo” value (melanoma xenografts) does the source give for `O=C(O)c1ccc2cc(-c3ccc(O)c(C45CC6CC(CC(C6)C4)C5)c3)ccc2c1` [CD437] here?
A: caused growth inhibition of melanoma xenografts
